ChEMBL document CHEMBL3525983, “Pharmacokinetics, metabolism, and disposition of rivoglitazone, a novel peroxisome proliferator-activated receptor γ agonist, in rats and monkeys” (Drug Metab Dispos, 2011)

Columns and labels:
[1] = Drug excretion in F344/DuCrlCrlj rat urine/feces treated with [14C]rivoglitazone at 1 mg/kg, po administered via gavage measured during 0 to 48 hrs by radio-HPLC analysis; format: ADME, organism-based; design: dose 1 mg/kg, dosed compound name [14C]Rivoglitazone, route oral; details: in vivo
[2] = Drug excretion in monkey urine/feces treated with [14C]rivoglitazone at 1 mg/kg, po administered via gavage measured during 0 to 72 hrs by radio-HPLC analysis; format: ADME, organism-based, Macaca mulatta; design: dose 1 mg/kg, dosed compound name [14C]Rivoglitazone, route oral; details: rhesus monkey, in vivo
[3] = Retention time of the compound by LC-MS/MS analysis; format: physicochemical; design: dosed compound name [14C]Rivoglitazone
[4] = Drug excretion in monkey feces treated with [14C]rivoglitazone at 1 mg/kg, po administered via gavage measured during 0 to 72 hrs by radio-HPLC analysis; format: ADME, organism-based, Macaca mulatta; design: dose 1 mg/kg, dosed compound name [14C]Rivoglitazone, route oral; details: rhesus monkey, in vivo
Rattus norvegicus = assay: Drug level in F344/DuCrlCrlj rat plasma treated with [14C]rivoglitazone assessed as ratio of molar basis AUC (0 to t) at 1 mg/kg, po administered via gavage by LC-MS/MS analysis; format: ADME, organism-based; design: dose 1 mg/kg, dosed compound name [14C]Rivoglitazone, route oral; details: in vivo
[5] = Drug excretion in F344/DuCrlCrlj rat urine/bile treated with [14C]rivoglitazone at 1 mg/kg, po administered via gavage measured during 0 to 48 hrs by radio-HPLC analysis; format: ADME, organism-based; design: dose 1 mg/kg, dosed compound name [14C]Rivoglitazone, route oral; details: in vivo
Rhesus monkey = assay: Drug level in monkey plasma treated with [14C]rivoglitazone assessed as ratio of molar basis AUC (0 to t) at 1 mg/kg, po administered via gavage by LC-MS/MS analysis; format: ADME, organism-based, Macaca mulatta; design: dose 1 mg/kg, dosed compound name [14C]Rivoglitazone, route oral; details: in vivo
[6] = Drug excretion in F344/DuCrlCrlj rat feces treated with [14C]rivoglitazone at 1 mg/kg, po administered via gavage measured during 0 to 48 hrs by radio-HPLC analysis; format: ADME, organism-based; design: dose 1 mg/kg, dosed compound name [14C]Rivoglitazone, route oral; details: in vivo
[7] = Drug excretion in monkey urine treated with [14C]rivoglitazone at 1 mg/kg, po administered via gavage measured during 0 to 72 hrs by radio-HPLC analysis; format: ADME, organism-based, Macaca mulatta; design: dose 1 mg/kg, dosed compound name [14C]Rivoglitazone, route oral; details: rhesus monkey, in vivo
[8] = Drug excretion in F344/DuCrlCrlj rat bile treated with [14C]rivoglitazone at 1 mg/kg, po administered via gavage measured during 0 to 48 hrs by radio-HPLC analysis; format: ADME, organism-based; design: dose 1 mg/kg, dosed compound name [14C]Rivoglitazone, route oral; details: in vivo
[9] = Drug excretion in F344/DuCrlCrlj rat urine treated with [14C]rivoglitazone at 1 mg/kg, po administered via gavage measured during 0 to 48 hrs by radio-HPLC analysis; format: ADME, organism-based; design: dose 1 mg/kg, dosed compound name [14C]Rivoglitazone, route oral; details: in vivo

Compound recovery [1] | Compound recovery [2] | Retention_time [3] | Compound recovery [4] | AUCmet/AUCp (Rattus norvegicus) | Compound recovery [5] | AUCmet/AUCp (Rhesus monkey) | Compound recovery [6] | Compound recovery [7] | Compound recovery [8] | Compound recovery [9] | Structure (SMILES)
25.6% | 18% | 19 min | 18% | 0.72% | metabolite_not_detected | 1.22% | 25.6% | – | – | – | Cn1c(COc2ccc(CC3SC(=O)NC3=O)cc2)nc2ccc(O)cc21 (configuration not stated)
1% | 1.3% | 18.1 min | – | 0.02% | 2% | 0.08% | metabolite_not_detected | 1.3% | 1% | 1% | COc1ccc2nc(COc3ccc(CC(C(N)=O)S(C)(=O)=O)cc3)n(C)c2c1 (configuration not stated)
– | 2.1% | 21.3 min | 1.7% | 0.03% | – | 0.02% | – | 0.4% | – | – | COc1ccc2nc(COc3ccc(CC4(O)SC(=O)NC4=O)cc3)n(C)c2c1 (configuration not stated)
3% | 0.8% | 24.1 min | 0.8% | 0.01% | metabolite_not_detected | 0.25% | 3% | – | – | – | COc1ccc2nc(COc3ccc(CC(SC)C(=O)O)cc3)n(C)c2c1 (configuration not stated)
– | – | 20.9 min | – | 0.01% | – | 0.05% | – | – | – | – | COc1ccc2nc(COc3ccc(CC(SC)C(N)=O)cc3)n(C)c2c1 (configuration not stated)
– | – | 16.8 min | – | – | – | 0.03% | – | – | – | – | COc1ccc2nc(COc3ccc(CC(SSCC(N)C(=O)O)C(=O)O)cc3)n(C)c2c1 (configuration not stated)
– | – | 13.8 min | – | – | 1.3% | – | metabolite_not_detected | – | 1.3% | – | Cn1c(COc2ccc(CC(C(N)=O)S(C)(=O)=O)cc2)nc2ccc(OS(=O)(=O)O)cc21 (configuration not stated)
– | 2.6% | 15.1 min | – | – | 1.5% | – | metabolite_not_detected | 2.6% | 1.5% | – | Cn1c(COc2ccc(CC3SC(=O)NC3=O)cc2)nc2ccc(O[C@@H]3O[C@H](C(=O)O)[C@@H](O)[C@H](O)[C@H]3O)cc21 (some centres not stated)
– | 6.6% | 17.2 min | 6.6% | – | – | 1.53% | – | – | – | – | COc1ccc2nc(COc3ccc(CC(SC(=O)N[C@@H]4O[C@H](C(=O)O)[C@@H](O)[C@H](O)[C@H]4O)C(=O)O)cc3)n(C)c2c1 (some centres not stated)
– | 3.8% | 17.8 min | – | – | – | 0.28% | – | 3.8% | – | – | O=C1NC(=O)C(Cc2ccc(OCc3nc4ccc(O)cc4[nH]3)cc2)S1 (configuration not stated)
– | – | 21.5 min | – | 0.02% | – | 7.01% | – | – | – | – | COc1ccc2nc(COc3ccc(CC4SC(=O)NC4=O)cc3)[nH]c2c1 (configuration not stated)
3.9% | – | 16.1 min | – | 0.08% | 4.5% | 0.11% | metabolite_not_detected | – | 0.6% | 3.9% | COc1ccc2nc(COc3ccc(CC(C(N)=O)[S+](C)[O-])cc3)n(C)c2c1 (configuration not stated)
– | 1.4% | 19.8 min | – | – | 1% | 2.15% | metabolite_not_detected | 1.4% | 1% | – | COc1ccc2nc(COc3ccc(CC4SC(=O)N([C@@H]5O[C@H](C(=O)O)[C@@H](O)[C@H](O)[C@H]5O)C4=O)cc3)n(C)c2c1 (some centres not stated)
– | – | 13.9 min | – | – | – | – | – | – | – | – | Cn1c(COc2ccc(CC(SC(=O)N[C@@H]3O[C@H](C(=O)O)[C@@H](O)[C@H](O)[C@H]3O)C(=O)O)cc2)nc2ccc(O)cc21 (some centres not stated)
8.7% | 2.9% | 16.9 min | 2.9% | – | metabolite_not_detected | – | 8.7% | – | – | – | CSC(Cc1ccc(OCc2nc3ccc(O)cc3n2C)cc1)C(N)=O (configuration not stated)
– | – | 9.9 min | – | – | 3.8% | – | metabolite_not_detected | – | 3.8% | – | Cn1c(COc2ccc(CC(C(N)=O)[S+](C)[O-])cc2)nc2ccc(OS(=O)(=O)O)cc21 (configuration not stated)
0.7% | 1.2% | 12.9 min | – | – | 3.5% | – | metabolite_not_detected | 1.2% | 2.8% | 0.7% | CSC(Cc1ccc(OCc2nc3ccc(O[C@@H]4O[C@H](C(=O)O)[C@@H](O)[C@H](O)[C@H]4O)cc3n2C)cc1)C(N)=O (some centres not stated)
